Assays:
isolated rat aorta = test: Cross-tolerance studies on aortic rings (GTN / Pet-12 pre-treatment); assay type: cell-based; details: aorta pre-treated with GTN
Method: Cross-tolerance studies were conducted using the same technique described above for measuring vasorelaxation of aortic rings from rats. Two groups of aortic rings samples were pre-treated with GTN, then one group was measured for vasorelaxation by GTN and the second group for vasorelaxation by Pet-12, an exemplary NO-donor according to the present invention. For the opposite cross-tolerance studies, two groups of aortic rings samples were pre-treated with Pet-12, then one group was measured for vasorelaxation by GTN and the second group for vasorelaxation by Pet-12.

[1] = test system: c-GMP in slices of thoracic aorta of rats; test: Cyclic-GMP measurement in aortic rat tissue (radioimmunoassay); assay type: cell-based
Method: GTN (10^−6 M) was added to the chamber and, 1 minute after exposure to the drug, rings (usually 3-5) were taken, wrapped with aluminum foil and immediately frozen in liquid nitrogen for storage. Control sample group was treated with the vehicle solution only. At the time of analysis, rings were thawed, blotted over a dry gauzed and weighted. A known weight of tissue was homogenized in 2 ml ice-cold modified Hank's balanced salt solution containing (in gram/liter) NaCl 8; KCl 0.4; glucose 1; KH2PO4 0.06; Na2HPO4 0.047; Phenol red 0.017 and further containing 25 mM EDTA (disodium salt). The homogenate was centrifuged at 4000 g (force units) for 10 minutes at 2-4° C. and the supernatant was thereafter transferred into fresh pre-cooled test tube containing 1 ml of acetonitrile. The tubes were vortex mixed for a few seconds and subsequently centrifuged at 4000 g for 5 minutes at 2-4° C., to remove the precipitated protein. Each supernatant was transferred into a clean test tube and evaporated to dryness under a stream of nitrogen at 55° C. The dry residue was reconstituted with 10 volumes of Tris-EDTA buffer pH 7.5 (0.05 M Tris containing 4 mM EDTA). Aliquots of 100 μl of the reconstituted solution in duplicate were used for c-GMP measurements using Amersham RIA kit, as is described in Haj-Yehia & Benet [Pharmacology, 1995, 273, 1, pp. 94-100]. Standard curves were plotted with six concentrations (0, 0.5, 1, 2, 4 and 8 pmoles of c-GMP per tube).
The NO-tolerance effect of GTN and NO-donor compounds according to the present invention was measured by following the production of c-GMP in slices of thoracic aorta of rats. Thus, the production of c-GMP was measured as described in the methods section above for the reference NO-donor compound GTN, and for the NO-donors of the present invention Pet-2, Pet-3, Pet-7, Pet-8, Pet-10, Pet-12, Pet-24, Pet-59, Pet-106, Pet-107, Pet-120, Pet-147, Pet-149, Pet-152, Pet-154 and Pet-155.

[2] = test system: cyclic-GMP in isolated aorta of rats; test: Induction of in vivo nitrate tolerance (cGMP in isolated aorta of rats pre-treated in vivo); set-up: species or system rat; details: rats pre-treated in vivo with the same compound
Method: For c-GMP levels and tolerance development, the rat's thoracic aorta was isolated after exposure to the tested compound in vivo, and measured as described above in the in vitro assays.
Male Sprague Dawley rats (220 to 250 grams) were housed under constant temperature and humidity conditions. Light was maintained at a 12/12 light dark cycle. Except for 12 hours before the experiment, when food fasting was initiated, all rats had free access to standard rat pellet diet and tap water. The animals were anesthetized by intraperitoneal injection of ketamine and xylazine combination (50 and 10 milligram per kilogram, respectively). […] The catheters were filled with normal saline solution containing 1000 IU/ml of heparin and plugged with a metal pin. Catheters were externalized to the back of the neck region and secured by a polyester felt disk.
After implantation, the rats were individually housed until they regained their preoperative weight and appeared healthy (3 to 4 days post-operation). At this time point (day 0), an osmotic mini-pump (Alza Corp., Palo Alto, Calif.) delivering constant volume (10 μl/hour) of vehicle or drug was connected to one of the intravenous catheters.
For inducing tolerance to the tested NO-donor according to the present invention, the animals received 200 μg/hour of the tested compound for 16 hours (short-term-induced tolerance). A similar number of animals were processed by the same surgical procedure and received the vehicle alone (10 μl/hour of a solution consisting of 30% ethanol and 30% propylene glycol in sterile distilled water for injection).
At the end of the infusion periods used for the development of tolerance (16 hour), the rats were anesthetized as described above, the two catheters were externalized and the delivering catheters were disconnected from the mini-pump. The abdomen was opened by midline incision and the thoracic aorta were isolated, washed and cleaned from the surrounding tissues. […]

Sprague-Dawley rats = test: Effects of Pet-120 on the endothelial dysfunction of angiotensin II induced hypertension in rats; assay type: in vivo, rat; details: Pet-120 with Ang II for 14 days; aortic rings, acetylcholine curves
Method: Male Sprague-Dawley rats were housed in separate cages and maintained in a temperature regulated room on a 12-hour light/dark cycle. Throughout the experiments, animals had free access to water and standard rat chow. Rats weighing 270 to 310 grams at the beginning of the experiments were anesthetized with ketamine and xylazine (50 and 10 mg/kg, respectively), and an osmotic miniature pump (model 2002; Alza Co) was implanted subcutaneously at the dorsum of the neck. Rats were selected at random and divided into three groups. The first group used as control and received the vehicle alone. The second group received angiotensin II (Ang II, Sigma Chemical Co) infusion (n=3) at a rate of 80 ng/minute or vehicle (n=2; for a period of 14 days. The third group (n=3) received both Ang II (as the second group) and Pet-120 at rate 167 ng/minute for 14 days. At the end of the treatment, rats were anesthetized with ketamine and xylazine (50 and 10 mg/kg, respectively), and both the osmotic pumps and the catheters were removed, and the animals were allowed to recover for 24 hours before initiation of the experiment.
Thereafter a section of the thoracic aorta (with endothelium) was removed from the rats, dissected free of fat and connective tissue in oxygenated Krebs-Hanseliet solution (pH 7.4). […]

With Cc1nc(-c2ccc([N+](=O)[O-])cc2)sc1CCO[N+](=O)[O-] [Pet-120, 4-Methyl-5-(2-nitrooxy-ethyl)-2-(4-nitro-phenyl)-thiazole] the “vasorelaxation in rings made tolerant to GTN (cross-tolerance)” value (isolated rat aorta) was “can even induce vasorelaxation in rat aorta of rats after tolerance has been induced therein by chronic use of GTN”, the “accumulation of cyclic-GMP as compared with GTN” value ([1]; isolated rat aorta, radioimmunoassay) was “increased levels of cGMP” and the “cGMP Post-infusion” value ([1]; rat thoracic aorta, post-infusion (repeated treatment)) was 133 ± 12 pmol/g tissue. The “tolerance induction by cyclic-GMP accumulation in aorta of rats pre-treated in vivo” value [2] was “absence of tolerance induction” and the “vasorelaxation after Ang II induced hypertension” value (Sprague-Dawley rats) was “notable capacity to induce vasorelaxation”.

— patent US8134010B2, “Thiazole-based nitric oxide donors having aryl substituent(s) and uses thereof” (priority 2004, dated 2012)
